In series [1] the test system is Keratin 13 (K13). Kind of series: Western blot of K13 in PS-341-treated oral mucosa epithelial cells. The class given is cell-based, rabbit. Particulars: OMECS. As to the method:
(§1) After two weeks of cell culture and when the cells grew to form a multilayered tissue like, proteasome inhibitor (PS-341, (Bortezomib/Velcade®, Millennium Pharmaceutical, a highly specific proteasome inhibitor) was added in cell culture media for 24 h and for 72 h at 2.5, 5, 10, 20, and 50 nM, to, respectively achieve proteasome inhibition or proteasome activation.
On the technique in general: Immunoblotting shows a protein as a band on a membrane.

The subject of series [2] is poly-ubiquitinated proteins. Put plainly: Western blot of poly-ubiquitinated proteins in PS-341-treated oral mucosa epithelial cells. Particulars: 2.5 nM PS-341, 72 h. The class given is cell-based, rabbit. The protocol:
as §1

The subject of series [3] is oral mucosa epithelial cells (OMECS). Kind of series: Toxicity of low-dose PS-341 in oral mucosa epithelial cells. The class given is cell-based, rabbit. As to conditions: 2.5 nM PS-341 (very low dose), 72 h. The protocol:
as §1

Series [4] concerns Keratin 4 (K4). Put plainly: Western blot of K4 in PS-341-treated oral mucosa epithelial cells. It counts as cell-based, rabbit. Particulars: OMECS. The protocol: as §1
Series [5] deals with 26S constitutive proteasome (CPR). Put plainly: Proteasome chymotrypsin-like activity in cultured oral mucosa epithelial cells treated with PS-341. It counts as cell-based, rabbit. As to the method: as §1
One μg of total protein from sample homogenates was used. The reaction mixture contained 50 mM Tris-HCl pH=8, 1 mM DTT, and 40 μM Suc-Leu-Leu-Val-Tyr-AMC (Sigma Aldrich) substrate for chymotrypsin-like activity or 40 μM of Boc-Leu-Ser-Thr-Arg-AMC for trypsin-like activity or 100 uM of Ac-Gly-Pro-Leu-Asp-AMC (Sigma Aldrich) for Caspase-like activity. 5 mM ATP was added to the reaction mixture to distinguish 26S proteasome activity from 20S proteasome activity. The mixture was then incubated for 30 min at 37° C., and then stopped by adding […] monochloroacetate and 30 mM sodium acetate pH=4.3. Fluorescence was determined by measuring the release of AMC (λ, excitation: 370 nm, λ, emission: 410 nm), using a Perkin Elmer LS 30 spectrofluorometer.

Series [6] has as its system IκB / NFκB. Kind of series: IκB / NFκB activation in PS-341-treated oral mucosa epithelial cells.
Setting [7] is: high doses 10 and 50 nM, 24 hours.

In the case of `CC(C)C[C@H](NC(=O)[C@H](Cc1ccccc1)NC(=O)c1cnccn1)B(O)O` [PS-341, Bortezomib], the K13 levels entry in series [1] (2.5 nM PS-341, 72 hours) is recorded as “decreased”. Besides, the K13 level result in series [1] (setting [7]) was “modified and significantly accumulated”. For the same molecule, the poly-ubiquitinated protein accumulation entry in series [2] is on record as “no significant poly-ubiquitinated protein accumulation”. For the same molecule, the toxic effects entry in series [3] is on record as “does not produce toxic effects”. In series [4] (2.5 nM PS-341, 72 hours), the K4 levels result is on record as “decreased”. In series [4] (setting [7]), the K4 level entry is “modified and significantly accumulated”. Besides, the “CPR chymotrypsin-like activity decrease” value in series [5] (2.5 nM PS-341, 24 h, oral mucosa epithelial cells) is 9%; in series [5] (5 nM PS-341, 24 h, oral mucosa epithelial cells), −41%; in series [5] (10 nM PS-341, 24 h, oral mucosa epithelial cells), −59%; in series [5] (20 nM PS-341, 24 h, oral mucosa epithelial cells) it was −84%; in series [5] (50 nM PS-341, 24 h, oral mucosa epithelial cells) it was −86%. In addition, in series [5] (2.5 nM PS-341, 72 hours, oral mucosa epithelial cells), the “increase in proteasome chymotrypsin-like activity versus untreated cells” value worked out at 61%. The “proteasome activities at 72 hours” value is listed as “increased proteasome activities” in series [5] (5 nM PS-341, 72 hours, oral mucosa epithelial cells) and “increased proteasome activities” in series [5] (10 nM PS-341, 72 hours, oral mucosa epithelial cells). In addition, in series [5] (high doses 10 and 50 nM, 24 hours, OMECS), the Chymotrypsine-like proteasome activity result is given as “decreased”. For the same molecule, the “levels of expression of Inhibitor Kappa B” value in series [6] (2.5 nM PS-341, 72 hours after treatment, OMECS) is recorded as “decreased”. In addition, the NFκB activation entry in series [6] (2.5 nM PS-341, OMECS) was “blocked NFκB activation”. Moreover, the IκB entry in series [6] (2.5 nM PS-341, first 24 hours, OMECS) is “stabilizing IκB”.

The values are drawn from patent US10736934B2, “Proteasome modulation for treatment of corneal disorders” (The Lundquist Institute, priority 2015, dated 2020).
